# Measurements published in ChEMBL document CHEMBL1129969 (J Med Chem, 1997).
# How the values were obtained:
# Oxytocin receptor = biological target: T1, Oxytocin receptor (Rattus norvegicus, UniProt P70536); assay: Binding affinity against Oxytocin receptor was determined in rat uterine membrane using radioligand [3H]oxytocin; assay type: cell membranes
# T1 sequence (P70536 whole entry): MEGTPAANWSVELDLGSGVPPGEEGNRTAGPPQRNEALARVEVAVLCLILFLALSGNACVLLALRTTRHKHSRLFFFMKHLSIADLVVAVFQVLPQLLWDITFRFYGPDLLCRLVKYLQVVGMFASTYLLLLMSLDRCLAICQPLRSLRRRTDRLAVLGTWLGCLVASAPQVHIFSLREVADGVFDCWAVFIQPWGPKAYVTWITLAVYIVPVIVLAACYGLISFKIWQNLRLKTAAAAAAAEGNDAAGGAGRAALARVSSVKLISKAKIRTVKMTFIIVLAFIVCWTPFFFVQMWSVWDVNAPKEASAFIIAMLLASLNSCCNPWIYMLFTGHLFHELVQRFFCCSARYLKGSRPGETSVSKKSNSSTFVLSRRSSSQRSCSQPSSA
# Rattus norvegicus [1] = species: Rattus norvegicus; assay: Biological activity was determined by pressor test using pithed rat preparations; assay type: functional
# Rattus norvegicus [2] = species: Rattus norvegicus; assay: Biological activity was determined by uterotonic in vitro test in magnesium-free solution; assay type: functional
# Rattus norvegicus [3] = assay: Biological activity was determined by uterotonic in vivo test using urethane-anesthetized rats (protracted action); assay type: functional
# Rattus norvegicus [4] = species: Rattus norvegicus; assay: Biological activity was determined by pressor test using pithed rat preparations (protracted action); assay type: functional
# Rattus norvegicus [5] = assay: Biological activity was determined by uterotonic in vivo test using urethane-anesthetized rats; assay type: functional
Ki (Oxytocin receptor),SMILES,Activity (Rattus norvegicus [1]),Activity (Rattus norvegicus [2]),Activity (Rattus norvegicus [3]),Activity (Rattus norvegicus [4]),Activity (Rattus norvegicus [5])
0.9 nM,CC[C@H](C)[C@@H]1NC(=O)[C@H](Cc2ccc(O)cc2)NC(=O)CCSSC[C@@H](C(=O)N2CCC[C@H]2C(=O)N[C@@H](CC(C)C)C(=O)NCC(N)=O)NC(=O)[C@H](CC(N)=O)NC(=O)[C@H](CCC(N)=O)NC1=O [DEMOXYTOCIN],5 IU mg-1,576 IU mg-1,541 IU mg-1,,
6 nM,CC[C@H](C)[C@@H]1NC(=O)[C@H](Cc2ccc(O)cc2)NC(=O)[C@@H](N)CSSSC[C@@H](C(=O)N2CCC[C@H]2C(=O)N[C@@H](CC(C)C)C(=O)NCC(N)=O)NC(=O)[C@H](CC(N)=O)NC(=O)[C@H](CCC(N)=O)NC1=O [OXYTOCIN TRISULFIDE],,,,,
3 nM,CC[C@H](C)[C@@H]1NC(=O)[C@H](Cc2ccc(O)cc2)NC(=O)CCSSSC[C@H](C(=O)N2CCC[C@H]2C(=O)N[C@@H](CC(C)C)C(=O)NCC(N)=O)NC(=O)[C@H](CC(N)=O)NC(=O)[C@H](CCC(N)=O)NC1=O [DEAMINOOXYTOCIN TRISULFIDE],,32.7 IU mg-1,135 IU mg-1,0.6 IU mg-1,
,CC[C@H](C)[C@@H]1NC(=O)[C@H](Cc2ccc(O)cc2)NC(=O)[C@@H](N)CSSC[C@@H](C(=O)N2CCC[C@H]2C(=O)N[C@@H](CC(C)C)C(=O)NCC(N)=O)NC(=O)[C@H](CC(N)=O)NC(=O)[C@H](CCC(N)=O)NC1=O [OXYTOCIN],5 IU mg-1,510 IU mg-1,,,450 IU mg-1
